The source of these data is paper doi:10.1101/2025.07.21.666047v1 (biorxiv, 2025).

Usually IC50 stands for the concentration needed to halve the response being measured. Low readings indicate inhibition by little substance, high ones a need for much substance. The term Kd denotes the constant that tells how readily two partners part at equilibrium.

The target in experiment [1] is CD28:B7.1 (immobilized CD28 and biotinylated B7.1) (Homo sapiens, UniProt P10747). In words: competitive ELISA, chemiluminescent. It is filed as binding.
In experiment [2] the target is recombinant human CD28 protein (extracellular domain, His-tagged) (Homo sapiens, UniProt P10747). Kind of experiment: spectral shift. In kind it is binding.
Sequence of recombinant human CD28 protein (extracellular domain, His-tagged) (P10747 19-152): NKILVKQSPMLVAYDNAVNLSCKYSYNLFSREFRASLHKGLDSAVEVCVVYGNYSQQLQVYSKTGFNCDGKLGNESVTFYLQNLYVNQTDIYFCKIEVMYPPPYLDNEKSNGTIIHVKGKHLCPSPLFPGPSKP

Sequence of CD28:B7.1 (immobilized CD28 and biotinylated B7.1) (P10747 19-152 limits assumed): as the sequence (P10747 19-152) above

In experiment [1], `NC(=O)c1ccc(N2CCN(C(=O)c3ncc4n3CCCC4)CC2)cc1` [Z2770993038] had an IC50 of 32.9 ± 5.74 µM. In addition, the Kd in experiment [2] worked out at 43.3 ± 16.4 µM. Consider `COc1ccc(C2CC(C)N(CC(=O)NCC(F)(F)F)C2)cc1` (centres unmarked) [Z3889890124], for which the Kd in experiment [2] was determined as 49.5 ± 15.3 µM.

The molecule `CC(C)OC1CCCN(C(=O)c2ccc(-c3nn[nH]n3)s2)C1` (centres unmarked) [Z4390463985] returned a half-inhibitory concentration (IC50) in experiment [1] of 56.3 ± 11.2 µM. Besides, in experiment [2], the Kd stood at 45.8 ± 12.1 µM.
